Assay results as given in patent publication US20250332300A1 (priority 2024, published 2025).
Where a name gives a salt, the structure may show the parent alone. Read-outs that look alike come from different tables or passages of the source. Positions of bridges follow the written chain, without caps; N, C: chain ends. Non-standard residues stand in square brackets, D forms with d. Residues, ends and D or L forms follow the SMILES beside them. Trp(5-OH) = N[C@@H](Cc1c[nH]c2ccc(O)cc12)C(=O)O; NMePhe(4-F) = CN[C@@H](Cc1ccc(F)cc1)C(=O)O; NMehPhe = CN[C@@H](CCc1ccccc1)C(=O)O; Gly(cPr) = N[C@H](C(=O)O)C1CC1; NMeD = CN[C@@H](CC(=O)O)C(=O)O; NMeDab = CN[C@@H](CCN)C(=O)O; 3Amb = NCc1cccc(C(=O)O)c1; NMeS = CN[C@@H](CO)C(=O)O

Tests used:
Format in all cases: binding
human HER2 (23-652) [1] = biological target: T1, human HER2 (23-652) (Homo sapiens, UniProt P04626); assay: Surface plasmon resonance (SPR) for assessment of peptide affinity, human HER2; set-up: towards human HER2 (23-652) and mouse HER2 (23-653); made in house; conditions: SPR, human HER2 extracellular domain, 25° C., 1:1 binding model; read-out: huHER2-SPR-ONC KD
How it was run: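 Binding kinetics fitted from sensorgrams with 280 s peptide association then 3000 s dissociation (30 uL/min), using HER2 (23-652) either directly immobilized (SA/CM5) or anti-Fc-captured; 3 M magnesium chloride used for regeneration.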

mouse HER2 (23-653) [2] = biological target: T2, mouse HER2 (23-653) (Mus musculus, UniProt P70424); assay: Surface plasmon resonance (SPR) for assessment of peptide affinity, mouse HER2; set-up: mouse HER2 (23-653) using a Cy5 labeled peptide as a probe; made in house; conditions: SPR, mouse HER2 extracellular domain, 25° C., 1:1 binding model; read-out: moHER2-SPR-ONC KD
Source text: Each protein was immobilized either onto a SA sensorchip (Cytiva, BR-1005-31) or CM5 sensorchip (Cytiva, BR-1005-30) to a density of 800-2000 RU.

human HER2 (23-652) [3] = biological target: T1, human HER2 (23-652); assay: TR-FRET competition assay for peptide potency, human HER2; set-up: towards human HER2 (23-652) and mouse HER2 (23-653); made in house; host or cells: mammalian cells
mouse HER2 (23-653) [4] = biological target: T2, mouse HER2 (23-653); assay: TR-FRET competition assay for peptide potency, mouse HER2; set-up: mouse HER2 (23-653) using a Cy5 labeled peptide as a probe; made in house; host or cells: mammalian cells
[5] = TR-FRET competition with Cy5 labeled peptide probe, 0.1 nM mouse HER2, 24 h incubation, read-out: moHER2 TR-FRET IC50

| Kd (human HER2 (23-652) [1]) [nM] | Kd (mouse HER2 (23-653) [2]) [nM] | IC50 (human HER2 (23-652) [3]; read-out: huHER2 TR-FRET IC50) [nM] | IC50 (mouse HER2 (23-653) [4]; [5]) [nM] | IC50 (human HER2 (23-652) [3]; value in parentheses (**): recalculated after further repetition, read-out: huHER2 TR-FRET IC50, recalculated value achieved after further repetition) [nM] | IC50 (mouse HER2 (23-653) [4]; value in parentheses (**): recalculated after further repetition, read-out: moHER2 TR-FRET IC50, recalculated value achieved after further repetition) [nM] | SMILES |
| --- | --- | --- | --- | --- | --- | --- |
| < 0.1 | 0.3 | < 0.1 | 0.2 |  |  | CC(=O)NCCCC[C@H]1C(=O)N[C@@H](Cc2c[nH]c3ccc(O)cc23)C(=O)N[C@@H](Cc2c[nH]c3ccccc23)C(=O)N[C@@H](C2CC2)C(=O)N(C)[C@H](C(=O)N(C)[C@@H](Cc2ccc(F)cc2)C(=O)N[C@@H](CCCCNC(=O)c2ccc(F)nc2)C(N)=O)CNC(=O)CCC[C@H](NC(C)=O)C(=O)N[C@@H](Cc2ccc(O)cc2)C(=O)N[C@@H](CO)C(=O)N(C)[C@@H](CCc2ccccc2)C(=O)N1C [Example F1] |
| 0.6 | 2 |  | 6.1 | 0.9 | 3.7 | CC(=O)NCCCC[C@H]1C(=O)N[C@@H](Cc2c[nH]c3ccc(O)cc23)C(=O)N[C@@H](Cc2c[nH]c3ccccc23)C(=O)N[C@@H]([C@H](C)O)C(=O)N(C)[C@H](C(=O)N(C)[C@@H](Cc2ccc(F)cc2)C(=O)N[C@@H](CCCCNC(=O)CN2CCN(CC(=O)O)CCN(CC(=O)O)CCN(CC(=O)O)CC2)C(N)=O)CNC(=O)CC[C@H](NC(C)=O)C(=O)N[C@@H](Cc2ccc(O)cc2)C(=O)N[C@@H](CO)C(=O)N(C)[C@@H](CCc2ccccc2)C(=O)N1C [Example C25] |
| 37 | 66 | 53 | 122 |  |  | CN1C(=O)[C@H](CO)NC(=O)[C@H](Cc2ccc(O)cc2)NC(=O)[C@@H](N)CCC(=O)NC[C@@H](C(=O)N(C)[C@@H](Cc2ccc(F)cc2)C(N)=O)N(C)C(=O)[C@H](C2CC2)NC(=O)[C@H](Cc2c[nH]c3ccccc23)NC(=O)[C@H](Cc2c[nH]c3ccc(O)cc23)NC(=O)[C@H](CO)N(C)C(=O)[C@@H]1CCc1ccccc1 [Example A35, (3S,6S,9S,12S,15S,18S,21S,24S,27S)-9-((1H-indol-3-yl)methyl)-27-amino-N—((S)-1-amino-3-(4-fluorophenyl)-1-oxopropan-2-yl)-6-cyclopropyl-12-((5-hydroxy-1H-indol-3-yl)methyl)-24-(4-hydroxybenzyl)-15,21-bis(hydroxymethyl)-N,4,16,19-tetramethyl-5,8,11,14,17,20,23,26,30-nonaoxo-18-phenethyl-1,4,7,10,13,16,19,22,25-nonaazacyclotriacontane-3-carboxamide TFA 5 salt] |
| 2810 | 5080 | > 1000 | > 1000 |  |  | CN1C(=O)[C@H](CO)NC(=O)[C@H](Cc2ccc(O)cc2)NC(=O)c2cccc(c2)CNC(=O)C[C@@H](C(=O)N(C)[C@@H](Cc2ccc(F)cc2)C(N)=O)N(C)C(=O)[C@H](C2CC2)NC(=O)[C@H](Cc2c[nH]c3ccccc23)NC(=O)[C@H](Cc2c[nH]c3ccc(O)cc23)NC(=O)[C@H](CO)N(C)C(=O)[C@@H]1CCc1ccccc1 [Example A24, (4S,7S,10S,13S,16S,19S,22S,25S)-19-((1H-indol-3-yl)methyl)-N-((S)-1-amino-3-(4-fluorophenyl)-1-oxopropan-2-yl)-22-cyclopropyl-16-((5-hydroxy-1H-indol-3-yl)methyl)-4-(4-hydroxybenzyl)-7,13-bis(hydroxymethyl)-N,9,12,24-tetramethyl-2,5,8,11,14,17,20,23,27-nonaoxo-10-phenethyl-3,6,9,12,15,18,21,24,28-nonaaza-1(1,3)-benzenacyclononacosaphane-25-carboxamide] ([3Amb]YS[NMehPhe][NMeS][Trp(5-OH)]W[Gly(cPr)][NMeD][NMePhe(4-F)]-NH2; lactam N-9) |
| < 0.1 | < 0.1 | < 0.1 | < 0.1 |  |  | CC(=O)NCCCC[C@H]1C(=O)N[C@@H](Cc2c[nH]c3ccc(O)cc23)C(=O)N[C@@H](Cc2c[nH]c3ccccc23)C(=O)N[C@@H](C2CC2)C(=O)N(C)[C@H](C(=O)N(C)[C@@H](Cc2ccc(F)cc2)C(=O)N[C@@H](CCCCNC(=O)CCC(C(=O)O)N2CCN(CC(=O)O)CCN(CC(=O)O)CC2)C(N)=O)CNC(=O)CCC[C@H](NC(C)=O)C(=O)N[C@@H](Cc2ccc(O)cc2)C(=O)N[C@@H](CO)C(=O)N(C)[C@@H](CCc2ccccc2)C(=O)N1C (stereo partly drawn) [Example B13] |
| 117 | 243 | 75 | 172 |  |  | CC(=O)N[C@H]1CC(=O)NCC[C@@H](C(=O)N(C)[C@@H](Cc2ccc(F)cc2)C(N)=O)N(C)C(=O)[C@H](C2CC2)NC(=O)[C@H](Cc2c[nH]c3ccccc23)NC(=O)[C@H](Cc2c[nH]c3ccc(O)cc23)NC(=O)[C@H](CO)N(C)C(=O)[C@H](CCc2ccccc2)N(C)C(=O)[C@H](CO)NC(=O)[C@H](Cc2ccc(O)cc2)NC1=O [Example A9, (2S,5S,8S,11S,14S,17S,20S,23S,29S)-17-((1H-indol-3-yl)methyl)-29-acetamido-N-((S)-1-amino-3-(4-fluorophenyl)-1-oxopropan-2-yl)-20-cyclopropyl-14-((5-hydroxy-1H-indol-3-yl)methyl)-2-(4-hydroxybenzyl)-5,11-bis(hydroxymethyl)-N,7,10,22-tetramethyl-3,6,9,12,15,18,21,27,30-nonaoxo-8-phenethyl-1,4,7,10,13,16,19,22,26-nonaazacyclotriacontane-23-carboxamide] (Ac-DYS[NMehPhe][NMeS][Trp(5-OH)]W[Gly(cPr)][NMeDab][NMePhe(4-F)]-NH2; lactam 1-9) |

| SMILES | Kd (human HER2 (23-652) [1]) [nM] | Kd (mouse HER2 (23-653) [2]) [nM] | IC50 (human HER2 (23-652) [3]; read-out: huHER2 TR-FRET IC50) [nM] | IC50 (mouse HER2 (23-653) [4]; [5]) [nM] | IC50 (human HER2 (23-652) [3]; value in parentheses (**): recalculated after further repetition, read-out: huHER2 TR-FRET IC50, recalculated value achieved after further repetition) [nM] | IC50 (mouse HER2 (23-653) [4]; value in parentheses (**): recalculated after further repetition, read-out: moHER2 TR-FRET IC50, recalculated value achieved after further repetition) [nM] |
| --- | --- | --- | --- | --- | --- | --- |
| CC(=O)N[C@H]1CCCC(=O)NC[C@@H](C(=O)N(C)[C@@H](Cc2ccc(F)cc2)C(=O)N[C@@H](CCCCNC(=O)CN2CCN(CC(=O)O)CCN(CC(=O)O)CCN(CC(=O)O)CC2)C(N)=O)N(C)C(=O)[C@H](C2CC2)NC(=O)[C@H](Cc2c[nH]c3ccccc23)NC(=O)[C@H](Cc2c[nH]c3ccc(O)cc23)NC(=O)[C@H](CCCCNC(=O)CO)N(C)C(=O)[C@H](CCc2ccccc2)N(C)C(=O)[C@H](CO)NC(=O)[C@H](Cc2ccc(O)cc2)NC1=O [Example B5] | < 0.1 | 0.1 | < 0.1 | 0.2 |  |  |
| CC(=O)NCCCC[C@H]1C(=O)N[C@@H](Cc2c[nH]c3ccc(O)cc23)C(=O)N[C@H](Cc2c[nH]c3ccccc23)C(=O)N[C@@H](C2CC2)C(=O)N(C)[C@H](C(=O)N(C)[C@@H](Cc2ccc(F)cc2)C(=O)N[C@@H](CCCCNC(=O)CN2CCN(CC(=O)O)CCN(CC(=O)O)CCN(CC(=O)O)CC2)C(N)=O)CNC(=O)CCC[C@H](NC(C)=O)C(=O)N[C@@H](Cc2ccc(O)cc2)C(=O)N[C@@H](CO)C(=O)N(C)[C@@H](CCc2ccccc2)C(=O)N1C [Example B9] | 5110 | > 6000 | > 1000 | > 1000 |  |  |
